Test results from US11723894B2, “Combination product for the treatment of neurological and/or psychiatric disorders” (Consejo Superior de Investigaciones Cientificas (CSIC), priority 2017, dated 2023).

Tests used:
[1] = system: Human SH-SY5Y dopaminergic cells; assay: 6-OHDA in vitro model of Parkinson's Disease, cell viability (MTT); format: cell-based; settings: tryptamine 1 μM 1 h, then 6-OHDA 30 μM 24 h
Excerpt: Example 9: DMT, DET, DPT and 5-MeO-DMT prevent dopaminergic cell death and inflammation (Only Measured for DMT) caused by the potent and selective dopaminergic toxin 6-OHDA in an in vitro model of Parkinson's Disease. These desired effects are preserved in the presence of the 5-HT2A antagonist Ritanserin (Rit). The Human SH-SY5Y dopaminergic cell line was obtained from Sigma-Aldrich, cultured in 96-well plates and propagated in RPMI medium containing glutamine (1%) and 15% of fetal bovine serum (FBS) plus antibiotic (gentamicin), under humidified 5% CO2 and 95% air. On attaining semiconfluence, separate groups of cells were treated with either: a) one of the four hallucinogenic tryptamines at 1 μM for 1 h, followed by 6-OHDA at 30 μM for 24 hours; or b) Rit at 1 μM for 1h, followed one of the four hallucinogenic tryptamines at 1 μM for an additional hour, at which point 6-OHDA was administered, also at 30 μM, and kept for 24 hours. Vehicle-treated cultures were used as controls. Cell cultures were then processed to assess cell viability (for all four tryptamines) and quantification of nitrite concentration (only performed in the DMT and DMT+Rit tests). Cell viability was measured using the MTT assay (Roche Diagnostic, GmbH), which is based on the ability of viable cells to reduce yellow MTT to blue formazan. After the aforementioned 24 h period in the presence of the different tryptamines or the respective tryptamine+Rit combinations, cells were incubated with MTT (0.5 mg/ml, 4 h) and subsequently solubilized in 10% SDS/0.01 M HCl for 12 h in the dark. The extent of MTT reduction was quantified by absorbance measurement at the 595 nm wavelength, as indicated in the instructions provided by the manufacturer. Nitrite quantification: Due to access to equipment problems at the time the experiments with DET, DPT and 5-MeO-DMT were conducted, the assessment of nitrite levels in the medium could only be done for the DMT experiments. These determinations were carried out as described in Example 8. Results from the cell viability tests are expressed as the percentage of viable dopaminergic cells measured. Results from nitrite determinations are expressed as actual concentrations (μM). Results from both techniques are presented in bar graphs.

[2] = system: Human SH-SY5Y dopaminergic cells; assay: 6-OHDA in vitro model of Parkinson's Disease, nitrite quantification (Griess); format: cell-based; settings: DMT 1 μM 1 h, then 6-OHDA 30 μM 24 h
[3] = system: dopaminergic neurons of the Substantia nigra pars compacta; assay: 6-OHDA in vivo model of Parkinson's Disease (injection into Substantia nigra pars compacta); set-up: species or system C57BL/6 mice; settings: 0.1 μg DMT co-injected with 5 μg 6-OHDA into SNpc, 3 weeks
Method: Example 10: DMT administration prevents dopaminergic cell death in a in vivo model of Parkinson's disease. Adult male C57BL/6 mice (8-12 weeks old) were used in this study. Animals were properly anaesthetized and placed in a stereotaxic apparatus (Kopf Instruments, CA). 6-OHDA (5 μg in […] PBS) was injected into the right side of the Substantia nigra pars compacta (SNpc) (coordinates from Bregma: posterior −3.2 mm; lateral +2.0 mm; ventral: +4.7 mm, according to the atlas of Paxinos and Franklin, The Mouse Brain in Stereotaxic Coordinates. 4. San Diego: Academic Press; 2012). Control animals of the same age were injected with PBS. A third group received an injection with 6-OHDA (5 μg) combined with DMT (0.1 μg) in […] PBS. Mice were then housed individually to recover and sacrificed 3 weeks later. At this point animals were anaesthetized and perfused transcardially with a 4% paraformaldehyde solution. The brains were removed, postfixed in the same solution at 4° C. overnight, cryoprotected in 20% sucrose, frozen, and 30 μm coronal sections were obtained in a cryostat. Free-floating sections were processed for double fluorescent immunohistochemistry. […] Neuronal integrity and specifically dopaminergic cell death was assessed by counting the percentage of TH^+ cells in the SNpc following a stereological approach. […] Images were analyzed using computer-assisted image analysis software (Soft Imaging System Corporation, Lakewood, Colo.). Results were expressed as the percentage of dopaminergic cell loss in the SNpc.

CN(C)CCc1c[nH]c2ccccc12 [DMT, N,N-dimethyltryptamine]
reduction in dopaminergic cell death in the presence of Ritanserin ([1]; Rit 1 μM 1 h): maintained | percentage of viable dopaminergic neurons ([1]; vs 6-OHDA alone): significant increases | nitrite production brought about by 6-OHDA ([2]; vs 6-OHDA alone): significantly reduced | reduction of nitrite levels in the presence of Ritanserin ([2]; Rit 1 μM 1 h): preserved | average percentage of dopaminergic cell loss in the SNpc [3]: 10% | decrease in dopaminergic neurons and increase in activated astroglial and microglial cells (images) [3]: virtually absent
